In PubChem BioAssay AID489006 (Sanford-Burnham Center for Chemical Genomics, 2010):
pIC50: −log10 of the molar value. Calls of active or inactive are those of the source. The rule behind the calls is not given here.

Tested on: Jurkat NF-kB reporter, luminescence
Assay: NF-kB reporter inhibition in Jurkat cells, dose response, selectivity assay for B-cell receptor NF-kB inhibitor project, cell-based, luminescence (AID 489006)

In the case of `Cn1c(=O)cc(OCCCC(=O)N2CCCCC2)c2ccccc21`, the IC50 was > 80 µM (inactive).
`Cc1cc(C)c(S(=O)(=O)NCc2ccncc2)c(C)c1` was tested, and the IC50 was > 80 µM (inactive).
`N=c1c2c(n(Cc3ccc(Cl)cc3Cl)c3c1CCC3)CCCC2` showed a pIC50 of 4.79.
With `Cc1ccccc1Nc1nc(Cl)c(C=O)s1` the IC50 was > 80 µM (inactive).
In the case of `COc1ccccc1/C=C1\SC(=S)N(CCC(=O)Nc2cc(C)on2)C1=O`, the IC50 was 54.7 µM (inactive).
For `CC1Cc2ccccc2N1S(=O)(=O)c1cnc(Cl)c(Br)c1` (stereo unspecified), the IC50 was 27.2 µM (inactive).
`COc1ccc(C(C(=O)NC2CCCCC2)N(C(=O)CCl)c2ccc(OC)cc2)cc1` (stereo unspecified) gave a pIC50 of 6.19.
`CCC(C)N1C(=O)/C(=C/c2c(NCCCOC(C)C)nc3c(C)cccn3c2=O)SC1=S` (stereo unspecified) was tested, and the IC50 was > 80 µM (inactive).
For `COc1ccc(C(=O)N/N=C/c2ccc(OC)c(CN3CCCc4ccccc43)c2)cc1`, the IC50 was > 80 µM (inactive).
`CC(C)Cn1c([N+](=O)[O-])nc2c1c(=O)[nH]c(=O)n2C` was tested, and the pIC50 was 5.14.
For `CCn1c(=O)cc(SCC(=O)N2CCC3(CC2)OCCO3)c2ccccc21`, the IC50 was > 80 µM (inactive).
With `CCN1C(=O)c2cccc3c(S(=O)(=O)NCC4CCCO4)ccc1c23` (stereo unspecified) the IC50 was > 80 µM (inactive).
For `Cc1cc(C)nc(Sc2ccc([N+](=O)[O-])cc2[N+](=O)[O-])n1`, the pIC50 was 4.93.
For `CC(=C/c1ccco1)/C=N/NC(=O)CSc1nnc(SCc2ccc(C)cc2)s1`, the IC50 was > 80 µM (inactive).
Molecule `Cn1nnnc1Sc1ncnc2scc(Br)c12` has a pIC50 of 5.95.
With `Cc1cc(OC(=O)c2ccccc2Cl)cc(=O)n1C` the IC50 was > 80 µM (inactive).
For `COc1ccc(-c2ccc(N(C)C)cc2)cc1[C@H]1[C@H]2C=CC[C@@H](C)[C@@H]2C(=O)N1Cc1ccccc1`, the IC50 was > 80 µM (inactive).
`CCOC(=O)CNC(=O)CSc1nnc(NC(=O)c2ccc(C)cc2)s1` showed a pIC50 of 5.23.
In the case of `O=C(Nc1ccccc1C(=O)Nc1nnc(C(F)(F)F)s1)c1ccccc1`, the IC50 was > 80 µM (inactive).
For `Cc1ccc(NC(=O)C2CCC(CNc3c(N4CCC(C)CC4)c(=O)c3=O)CC2)cc1F` (stereo unspecified), the IC50 was > 80 µM (inactive).
For `Cc1c(CCC(=O)N2CCC[C@H]2C(=O)O)c(=O)oc2cc3oc4c(c3cc12)CCCC4`, the IC50 was > 80 µM (inactive).
With `CCC(=O)N1c2ccccc2C(N(C(C)=O)c2ccccc2)CC1C` (stereo unspecified) the IC50 was > 80 µM (inactive).
For `O=C(CCCN1C(=O)S/C(=C\c2ccccc2)C1=O)NNC(=O)c1ccccc1O`, the pIC50 was 5.97.
`COc1ccc(/C=C2/SC(=S)N(CCC(=O)O)C2=O)cc1` showed a pIC50 of 6.40.
`O=C(CCCN1C(=O)/C(=C/c2ccccc2Cl)SC1=S)NNC(=O)c1ccncc1` showed a pIC50 of 5.11.
`COC(=O)[C@@]12OC[C@]34[C@H]([C@@H](O)[C@@H]1O)[C@@]1(C)C(=O)C(O[C@@H]5OC(CO)[C@@H](O)[C@@H](O)[C@@H]5O)=C[C@@H](C)[C@@H]1C[C@H]3OC(=O)[C@H](OC(=O)/C=C(\C)C(C)(C)OC(C)=O)[C@@H]24` (stereo partly specified) gave a pIC50 of 6.09.
For `COc1ccc(-c2csc3nc(-c4cccnc4)nc(N4CCC(C(N)=O)CC4)c23)cc1OC`, the pIC50 was 4.92.
With `O=C(CCCN1C(=O)S/C(=C\C=C\c2ccccc2)C1=O)Nc1ccc(O)cc1` the IC50 was > 80 µM (inactive).
In the case of `CCN(CC(=O)Nc1c(F)cccc1F)C(=O)c1cc(S(=O)(=O)N(CC)CC)ccc1N1CCCCC1`, the IC50 was > 80 µM (inactive).
`COc1ccc(-c2noc(N3CCC(C(=O)Nc4ccc(OC)c(OC)c4)CC3)n2)cc1` was tested, and the IC50 was > 80 µM (inactive).
Work on `COC(=O)[C@@H]1Cc2c([nH]c3ccccc23)C(C)(C)N1C(=O)CCl` yielded a pIC50 of 5.76.
For `O=C(Nc1nc2nc(-c3ccccc3)cc(-c3ccccc3)n2n1)c1ccco1`, the pIC50 was 4.92.
`O=C1NC[C@H](c2ccccc2)OC(=O)[C@@H](Cc2ccc(F)cc2)C/C=C\C[C@H]1CC(=O)N(CCO)Cc1ccccc1` gave a pIC50 of 4.93.
`O=C1CCC2S/C(=C/Nc3ccc(C(F)(F)F)cc3)C(=O)N12` (stereo unspecified) gave a pIC50 of 6.74.
For `COCCCn1c(=O)/c(=C\c2cccc(OC)c2OC)s/c1=C(/C#N)C(=O)Nc1ccc(C(=O)O)cc1`, the IC50 was > 80 µM (inactive).
`COc1ccc(N(CC(=O)N2CCN(c3ccc(Cl)cc3)CC2)S(=O)(=O)c2c(C)n[nH]c2C)cc1` was tested, and the IC50 was > 80 µM (inactive).
